# According to BindingDB's records for doi:10.1016/j.bmcl.2013.01.017 (Vanderbilt University Medical Center, 2013):
# Biological target: T1, Muscarinic acetylcholine receptor M1 (Homo sapiens, UniProt P11229)
# T1 sequence (P11229 whole entry): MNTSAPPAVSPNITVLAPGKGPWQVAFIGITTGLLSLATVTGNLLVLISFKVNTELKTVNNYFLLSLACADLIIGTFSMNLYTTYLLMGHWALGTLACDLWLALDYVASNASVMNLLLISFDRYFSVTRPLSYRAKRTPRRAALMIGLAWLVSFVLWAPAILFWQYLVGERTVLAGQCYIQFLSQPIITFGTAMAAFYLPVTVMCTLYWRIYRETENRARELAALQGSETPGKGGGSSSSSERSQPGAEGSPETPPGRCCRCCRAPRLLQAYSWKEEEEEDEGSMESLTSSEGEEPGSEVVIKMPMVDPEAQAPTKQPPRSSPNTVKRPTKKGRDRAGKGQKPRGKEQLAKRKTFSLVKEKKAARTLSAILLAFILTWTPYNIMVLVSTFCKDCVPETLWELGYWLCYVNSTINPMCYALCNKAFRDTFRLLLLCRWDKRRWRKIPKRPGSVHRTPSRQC
# Experiment: Positive allosteric modulation of human muscarinic M1 receptor
smiles,measurement,value
Cn1cc(-c2ccc(CN3C(=O)C4(CCN(C5CCCC5)C4)c4ccccc43)c(F)c2)cn1 (stereo unspecified),EC50,> 10 µM
